Laboratory results reported in publication PMC4696824 (PLoS ONE, 2015).

T1: cathepsin B-like cysteine peptidase (DCcathB) (Diaphorina citri, UniProt A0A0U4DX43)
T1 construct: mature peptide residues 70 to 374
T1 sequence (A0A0U4DX43 70-374): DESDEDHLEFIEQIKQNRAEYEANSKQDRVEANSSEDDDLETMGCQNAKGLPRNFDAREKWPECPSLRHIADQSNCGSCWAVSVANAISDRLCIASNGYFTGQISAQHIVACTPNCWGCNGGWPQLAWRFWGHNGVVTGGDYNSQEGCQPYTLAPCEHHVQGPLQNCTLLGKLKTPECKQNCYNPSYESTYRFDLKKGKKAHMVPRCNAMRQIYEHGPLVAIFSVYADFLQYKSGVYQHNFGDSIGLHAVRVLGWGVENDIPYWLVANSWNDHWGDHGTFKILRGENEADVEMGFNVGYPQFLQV

B1: cathepsin B-like cysteine peptidase (DCcathB) (Diaphorina citri) (protein)
chain: DESDEDHLEFIEQIKQNRAEYEANSKQDRVEANSSEDDDLETMGCQNAKGLPRNFDAREKWPECPSLRHIADQSNCGSCWAVSVANAISDRLCIASNGYFTGQISAQHIVACTPNCWGCNGGWPQLAWRFWGHNGVVTGGDYNSQEGCQPYTLAPCEHHVQGPLQNCTLLGKLKTPECKQNCYNPSYESTYRFDLKKGKKAHMVPRCNAMRQIYEHGPLVAIFSVYADFLQYKSGVYQHNFGDSIGLHAVRVLGWGVENDIPYWLVANSWNDHWGDHGTFKILRGENEADVEMGFNVGYPQFLQV
notes: mature peptide residues 70 to 374

How the values were obtained:
[1] = molecular target: T1, cathepsin B-like cysteine peptidase (DCcathB); assay: fluorogenic inhibition assay, Z-F-R-AMC substrate, purified recombinant enzyme; type: biochemical
[2] = substrate: Cc1cc(=O)oc2cc(NC(=O)[C@H](CCCNC(=N)N)NC(=O)[C@H](CCCNC(=N)N)NC(=O)OCc3ccccc3)ccc12; assay: fluorogenic substrate hydrolysis, Km, purified recombinant enzyme; type: biochemical, Diaphorina citri
[3] = substrate: Cc1cc(=O)oc2cc(NC(=O)[C@H](CCCNC(=N)N)NC(=O)[C@H](Cc3ccccc3)NC(=O)OCc3ccccc3)ccc12; assay: as above; type: biochemical, Diaphorina citri

Molecule	IC50 [1] [nM]	Km [2] [µM]	Km [3] [µM]
CC(C)C[C@H](NC(=O)[C@H]1O[C@@H]1C(=O)O)C(=O)NCCCCN=C(N)N [E-64, L-trans-Epoxysuccinyl-leucylamido(4-guanidino)butane]	14	–	–
CCCNC(=O)[C@H]1O[C@@H]1C(=O)N[C@H](C(=O)N1CCC[C@H]1C(=O)O)[C@@H](C)CC [CA-074, N-(l-3-trans-propylcarbamoyloxirane-2-carbonyl)-L-isoleucyl-L-proline]	0.095	–	–
B1	–	6.13	23.5
